Measured values: the NIST ThermoML archive (doi:10.1021/je020120h)

Columns and labels:
[1] = 298.15 K; 101.33 kPa; Liquid; Vibrating tube method
[2] = excess molar enthalpy (molar enthalpy of mixing); xn = mol fraction of the nth substance listed; details: 298.15 K, 101.3 kPa, Liquid, Flow calorimetry

Cc1ccccc1C [1,2-dimethylbenzene]
Details	mass density [kg/m3]
[1]	875

Cc1ccccc1C [1,2-dimethylbenzene] + COC(=O)OC
[2]
Details	excess molar enthalpy [kcal/mol]
x2 = 0.0511	0.0266
x2 = 0.1006	0.0553
x2 = 0.1503	0.0795
x2 = 0.2016	0.0932
x2 = 0.2513	0.106
x2 = 0.3024	0.125
x2 = 0.3519	0.137
x2 = 0.3998	0.147
x2 = 0.4514	0.153
x2 = 0.5013	0.155
x2 = 0.5519	0.153
x2 = 0.6007	0.149
x2 = 0.6502	0.142
x2 = 0.7002	0.132
x2 = 0.7504	0.12
x2 = 0.8008	0.104
x2 = 0.8513	0.0841
x2 = 0.8998	0.0605
x2 = 0.9501	0.0322

Cc1cccc(C)c1 [1,3-dimethylbenzene]
Details	mass density [kg/m3]
[1]	860

Cc1cccc(C)c1 [1,3-dimethylbenzene] + COC(=O)OC
[2]
Details	excess molar enthalpy [kcal/mol]
x2 = 0.0502	0.0299
x2 = 0.1006	0.0579
x2 = 0.151	0.0824
x2 = 0.2014	0.102
x2 = 0.2517	0.119
x2 = 0.3004	0.133
x2 = 0.3503	0.144
x2 = 0.4014	0.153
x2 = 0.4506	0.158
x2 = 0.5007	0.16
x2 = 0.5515	0.16
x2 = 0.6004	0.156
x2 = 0.6522	0.149
x2 = 0.7018	0.14
x2 = 0.7517	0.127
x2 = 0.8017	0.109
x2 = 0.8517	0.0878
x2 = 0.9015	0.063
x2 = 0.9509	0.0337

Cc1ccc(C)cc1 [1,4-dimethylbenzene]
Details	mass density [kg/m3]
[1]	856.7

Cc1ccc(C)cc1 [1,4-dimethylbenzene] + COC(=O)OC
[2]
Details	excess molar enthalpy [kcal/mol]
x2 = 0.0504	0.0295
x2 = 0.101	0.0543
x2 = 0.1515	0.0837
x2 = 0.202	0.102
x2 = 0.2529	0.119
x2 = 0.3012	0.133
x2 = 0.3512	0.145
x2 = 0.4022	0.153
x2 = 0.4515	0.159
x2 = 0.5016	0.161
x2 = 0.5524	0.16
x2 = 0.6013	0.156
x2 = 0.6507	0.149
x2 = 0.7004	0.139
x2 = 0.7503	0.125
x2 = 0.8003	0.109
x2 = 0.8502	0.0879
x2 = 0.9018	0.0621
x2 = 0.9511	0.033

COC(=O)OC [dimethyl carbonate]
Details	mass density [kg/m3]
[1]	1063.1

CCOC(=O)c1ccccc1 [ethyl benzoate]
Details	mass density [kg/m3]
[1]	1041.3

CCOC(=O)c1ccccc1 [ethyl benzoate] + COC(=O)OC
[2]
Details	excess molar enthalpy [kcal/mol]
x2 = 0.05	0.0138
x2 = 0.0999	0.0284
x2 = 0.1497	0.0413
x2 = 0.1991	0.0541
x2 = 0.2482	0.0641
x2 = 0.2984	0.073
x2 = 0.3495	0.0804
x2 = 0.4012	0.0861
x2 = 0.4503	0.09
x2 = 0.4998	0.0919
x2 = 0.5495	0.0924
x2 = 0.599	0.0911
x2 = 0.6506	0.0872
x2 = 0.6993	0.0831
x2 = 0.7495	0.075
x2 = 0.8007	0.0655
x2 = 0.8507	0.0533
x2 = 0.8993	0.0387
x2 = 0.9498	0.0207

CCc1ccccc1 [ethylbenzene]
Details	mass density [kg/m3]
[1]	862.5

CCc1ccccc1 [ethylbenzene] + COC(=O)OC
[2]
Details	excess molar enthalpy [kcal/mol]
x2 = 0.0501	0.0215
x2 = 0.1003	0.0489
x2 = 0.149	0.0639
x2 = 0.201	0.0848
x2 = 0.2512	0.104
x2 = 0.2998	0.119
x2 = 0.3525	0.133
x2 = 0.4005	0.143
x2 = 0.4524	0.15
x2 = 0.5025	0.153
x2 = 0.5507	0.153
x2 = 0.602	0.151
x2 = 0.6513	0.145
x2 = 0.7011	0.135
x2 = 0.7512	0.123
x2 = 0.8012	0.106
x2 = 0.8513	0.0865
x2 = 0.9012	0.0623
x2 = 0.9509	0.0335
